# According to US20040266742A1, “Combination therapy of an sodm and a corticosteroid for prevention and/or treatment of inflammatory disease” (priority 2001, published 2004):
# Entries after “also recorded” stand apart in the source; their conditions may differ.
# What was measured:
# [1] = test system: carrageenan-induced paw edema; assay: Carrageenan-induced paw edema in rats; format: in vivo, sprague dawley rats
# Method: Dexamethasone was given by lavage one hour before carrageenan. […] (1 mg/kg) was given intravenously 15 minutes before carrageenan. Male sprague dawley rats weighing between 200 and 210 g were used. Paw edema was monitored for 6 hours. Results express delta change from basal. Each number is the mean+s.e.m. for n=4 rats per group.
# [2] = relative potency; cited from earlier work
# [3] = relative potency; cited from earlier work; remark: listed apart in the source
# [4] = cited from earlier work
# [5] = test system: nitrotyrosine; assay: Nitrotyrosine immunostaining in paw/joint of collagen-induced arthritis rats; format: in vivo, Lewis rats; conditions: day 35; low doses alone: DEX 0.01 mg/kg or M40403 2 mg/kg
# Method: (§1) Immunohistochemical Localization of Nitrotyrosine, PARS, COX-2 and iNOS At day 35, the joints organs were then trimmed, placed in decalcifying solution for 24 hours and 8 μm sections were prepared from paraffin embedded tissues. After deparaffinization, endogenous peroxidase was quenched with 0.3% H2O2 in 60% methanol for 30 minutes. The sections were permeabilized with 0.1% Triton X-100 in PBS for 20 minutes. Non-specific adsorption was minimized by incubating the section in 2% normal goat serum in phosphate buffered saline for 20 minutes. Endogenous biotin or avidin binding sites were blocked by sequential incubation for 15 minutes with avidin and biotin. Sections were incubated overnight with 1) anti-rabbit polyclonal antibody directed at iNOS (1:1000 in PBS, v/v) (DBA, Milan, Italy) or 2) with anti-COX-2 goat policlonal antibody (1:500 in PBS, v/v) or 3) with anti-nitrotyrosine rabbit policlonal antibody (1:1000 in PBS, v/v) or 4) with anti-poly (ADP-Ribose) goat policlonal antibody rat (1:500 in PBS, v/v). Controls included buffer alone or non-specific purified rabbit IgG. Specific labelling was detected with a biotin-conjugated goat anti-rabbit IgG (for nitrotyrosine and iNOS) or with a biotin-conjugated […] and avidin-biotin peroxidase complex. […]
# [6] = test system: PARS; assay: PARS immunostaining in paw/joint of collagen-induced arthritis rats; format: in vivo, Lewis rats; conditions: day 35; low doses alone: DEX 0.01 mg/kg or M40403 2 mg/kg
# Method: as §1
# [7] = test system: iNOS; assay: iNOS immunostaining in paw/joint of collagen-induced arthritis rats; format: in vivo, Lewis rats; conditions: day 35; low doses alone: DEX 0.01 mg/kg or M40403 2 mg/kg
# Method: as §1
# [8] = test system: COX-2; assay: COX-2 immunostaining in paw/joint of collagen-induced arthritis rats; format: in vivo, Lewis rats; conditions: day 35; low doses alone: DEX 0.01 mg/kg or M40403 2 mg/kg
# Method: as §1
# [9] = Body weight gain in collagen-induced arthritis rats; format: in vivo, Lewis rats; conditions: day 25 to 35; low doses alone: DEX 0.01 mg/kg or M40403 2 mg/kg
# Excerpt: Animals were randomly divided into six groups (n=10 for each group) as follows: […]
Compound,Anti-inflammatory Potency [2],Na+-retaining Potency [3],"Duration (T½, Hours) [4] [h]",other results
"5,10,15,20-tetrakis (2,4,6-trimethyl-3,5-disulfonatophenyl)-porphyrinato iron (III) [FeTMPS]",,,,"Paw edema, delta change from basal ([1]; FeTMPS 1 mpk intravenously 15 minutes before carrageenan, 0 h post carrageenan): 0; Paw edema, delta change from basal ([1]; FeTMPS 1 mpk, 1 h post carrageenan): 0.6 ± 0.02; Paw edema, delta change from basal ([1]; FeTMPS 1 mpk, 2 h post carrageenan): 0.9 ± 0.05; Paw edema, delta change from basal ([1]; FeTMPS 1 mpk, 3 h post carrageenan): 1.1 ± 0.01; Paw edema, delta change from basal ([1]; FeTMPS 1 mpk, 4 h post carrageenan): 1.2 ± 0.02; Paw edema, delta change from basal ([1]; FeTMPS 1 mpk, 5 h post carrageenan): 1 ± 0.03; Paw edema, delta change from basal ([1]; FeTMPS 1 mpk, 6 h post carrageenan): 1.3 ± 0.02"
C[C@H]1C[C@@H]2[C@H]([C@@H](O)C[C@@]3(C)[C@H]2CC[C@]3(O)C(=O)CO)[C@@]2(C)C=CC(=O)C=C12 [6a-Methyl-prednisolone],5,0.5,12 to 36,
C[C@]12CCC(=O)C=C1CC[C@@H]1[C@@H]2[C@@H](O)C[C@@]2(C)[C@H]1CC[C@]2(O)C(=O)CO [Cortisol],1,1,8 to 12,
C[C@]12CCC(=O)C=C1CC[C@@H]1[C@@H]2C(=O)C[C@@]2(C)[C@H]1CC[C@]2(O)C(=O)CO [Cortisone],0.8,0.8,,
C[C@]12CCC(=O)C=C1CC[C@H]1[C@@H]3CC[C@](O)(C(=O)CO)[C@@]3(C)C[C@H](O)[C@@]12F [Fludrocortisone],,,8 to 12,
[Cl-].[Cl-].[Mn+2].c1cc2nc(c1)CN[C@@H]1CCCC[C@H]1NCCN[C@@H]1CCCC[C@H]1NC2 [M40403],,,,Nitrotyrosine immunostaining in joint [5]: No significant protective effect; PARS immunostaining in joint [6]: No significant protective effect; iNOS immunostaining in joint [7]: had no effect on iNOS or COX-2 staining; COX-2 immunostaining in joint [8]: had no effect on iNOS or COX-2 staining; Body weight gain [9]: gained weight in a manner that was similar to CIA rats; also recorded: gained significantly less weight than the normal rats
C[C@]12C=CC(=O)C=C1CC[C@@H]1[C@@H]2[C@@H](O)C[C@@]2(C)[C@H]1CC[C@]2(O)C(=O)CO [Prednisolone],4,0.8,12 to 36,
C[C@]12C=CC(=O)C=C1CC[C@@H]1[C@@H]2C(=O)C[C@@]2(C)[C@H]1CC[C@]2(O)C(=O)CO [Prednisone],,,12 to 36,
C[C@]12C=CC(=O)C=C1CC[C@H]1[C@@H]3C[C@@H](O)[C@](O)(C(=O)CO)[C@@]3(C)C[C@H](O)[C@@]12F [Triamcinolone],5,0,12 to 36,
